Here are results for 1 substance from US7632918B2, “Semi-synthetic glycopeptides with antibiotic activity” (Novartis Vaccines and Diagnostics, Inc., priority 2005, dated 2009).

Common to all, as to assay: MIC, broth microdilution in Meuller-Hinton broth (NCCLS)
On the technique in general: In broth dilution the organism is exposed to a series of concentrations in liquid medium.

The subject of one test is 602 S. haemolyticus. The test is classed as cell-based, Staphylococus haemolyticus. As to conditions: clinical isolate. Put shortly: (§1)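 Clinical isolates, sensitive or resistant to natural glycopeptides, tested by NCCLS broth microdilution in Mueller-Hinton broth. MIC reported in μg/ml.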
A further test concerns 559 E. faecalis (GSE). In kind it is cell-based, Enterococcus faecalis. As to conditions: glycopeptide-sensitive clinical isolate. Put shortly: as §1
In the next test the test system is 560 E. faecalis (GRE). In kind it is cell-based, Enterococcus faecalis. As to conditions: glycopeptide-resistant clinical isolate. The gist of the method:
as §1

The next test relates to 569 E. faecium (GRE). The test is classed as cell-based. The following applies: glycopeptide-resistant clinical isolate. The gist of the method: as §1
The next test deals with 568 E. faecium (GSE). The test is classed as cell-based. As to conditions: glycopeptide-sensitive clinical isolate. The gist of the method: as §1
The next test concerns 3797 S. aureus (GISA). In kind it is cell-based, Staphylococus aureus. As to conditions: glycopeptides-intermediate clinical isolate. Put shortly:
as §1

The test system of the next test is 3798 S. aureus (GISA). The test is classed as cell-based, Staphylococus aureus. As to conditions: glycopeptides-intermediate clinical isolate. The gist of the method:
as §1

Another test deals with 533 S. epidermidis. The test is classed as cell-based, Staphylococus epidermidis. As to conditions: clinical isolate. The gist of the method:
as §1

Turning to “N′-stilbenylHNCH2CO eremomycin [Compound 192]”, the “MIC 602 S. haemolyticus” value with 602 S. haemolyticus was determined as 0.5 mg/L. For the same substance, in the test on 559 E. faecalis (GSE), the “MIC 559 E. faecalis (GSE)” value was determined as 1 mg/L. Besides, in the test with 560 E. faecalis (GRE), the “MIC 560 E. faecalis (GRE)” value was found to be 8 mg/L. The “MIC 569 E. faecium (GRE)” value against 569 E. faecium (GRE) amounted to 4 mg/L. The “MIC 568 E. faecium (GSE)” value against 568 E. faecium (GSE) came out at 0.5 mg/L. Besides, in the test on 3797 S. aureus (GISA), the “MIC 3797 S. aureus (GISA)” value worked out at 8 mg/L. Also, the “MIC 3798 S. aureus (GISA)” value in the test with 3798 S. aureus (GISA) is 8 mg/L. In addition, in the test with 533 S. epidermidis, the “MIC 533 S. epidermidis” value amounted to 0.5 mg/L.
